Assays:
OATP1B3 = molecular target: T1, OATP1B3 (Homo sapiens, UniProt Q9NPD5); assay: Uptake into HEK293 cells expressing OATP1B3; details: for Uptake Rate / Fold-Change: 6 μM; for Fold-Change: vs HEK293-mock; for Substrate: OATP1B3
T1 sequence (Q9NPD5 1-702): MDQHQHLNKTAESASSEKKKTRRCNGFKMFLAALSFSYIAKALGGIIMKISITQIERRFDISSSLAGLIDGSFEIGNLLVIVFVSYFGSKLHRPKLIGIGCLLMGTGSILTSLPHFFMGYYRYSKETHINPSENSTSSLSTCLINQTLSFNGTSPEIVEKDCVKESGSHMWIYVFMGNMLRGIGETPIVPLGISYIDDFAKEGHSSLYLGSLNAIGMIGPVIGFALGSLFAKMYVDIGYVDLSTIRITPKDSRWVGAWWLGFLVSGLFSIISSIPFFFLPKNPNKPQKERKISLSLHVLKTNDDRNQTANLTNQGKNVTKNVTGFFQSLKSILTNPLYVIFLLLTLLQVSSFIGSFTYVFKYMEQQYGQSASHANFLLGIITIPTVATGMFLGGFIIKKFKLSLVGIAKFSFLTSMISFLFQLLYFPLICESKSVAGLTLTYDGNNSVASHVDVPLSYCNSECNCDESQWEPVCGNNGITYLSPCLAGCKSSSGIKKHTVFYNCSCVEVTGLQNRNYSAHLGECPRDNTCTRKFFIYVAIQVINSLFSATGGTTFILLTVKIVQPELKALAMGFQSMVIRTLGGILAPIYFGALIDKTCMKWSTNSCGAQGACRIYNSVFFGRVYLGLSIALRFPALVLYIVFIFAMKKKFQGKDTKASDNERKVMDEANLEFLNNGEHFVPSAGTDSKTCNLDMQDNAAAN

OAT1 = molecular target: T2, OAT1 (Homo sapiens, UniProt Q4U2R8); assay: Uptake into HEK293 cells expressing OAT1; details: for Uptake Rate / Fold-Change: 6 μM; for Fold-Change: vs HEK293-mock; for Substrate: OAT1
T2 sequence (Q4U2R8 1-563): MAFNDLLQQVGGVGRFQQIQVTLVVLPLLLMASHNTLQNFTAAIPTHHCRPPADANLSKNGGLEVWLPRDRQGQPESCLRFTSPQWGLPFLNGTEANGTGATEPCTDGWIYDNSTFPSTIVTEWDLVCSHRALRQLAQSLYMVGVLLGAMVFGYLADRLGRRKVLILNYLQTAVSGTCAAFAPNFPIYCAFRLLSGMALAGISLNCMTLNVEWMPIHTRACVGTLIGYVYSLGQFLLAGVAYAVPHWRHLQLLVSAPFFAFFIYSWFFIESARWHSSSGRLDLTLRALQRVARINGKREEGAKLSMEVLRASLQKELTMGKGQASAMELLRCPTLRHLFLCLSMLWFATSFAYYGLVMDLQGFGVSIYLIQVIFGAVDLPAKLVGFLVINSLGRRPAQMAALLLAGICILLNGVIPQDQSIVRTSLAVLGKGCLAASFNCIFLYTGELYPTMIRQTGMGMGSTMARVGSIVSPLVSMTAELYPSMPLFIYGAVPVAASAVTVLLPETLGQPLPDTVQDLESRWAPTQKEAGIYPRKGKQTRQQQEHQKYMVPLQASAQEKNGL

OATP1B1 = molecular target: T3, OATP1B1 (Homo sapiens, UniProt Q9Y6L6); assay: Uptake into HEK293 cells expressing OATP1B1; details: for Uptake Rate / Fold-Change: 6 μM; for Fold-Change: vs HEK293-mock; for Substrate: OATP1B1
T3 sequence (Q9Y6L6 1-691): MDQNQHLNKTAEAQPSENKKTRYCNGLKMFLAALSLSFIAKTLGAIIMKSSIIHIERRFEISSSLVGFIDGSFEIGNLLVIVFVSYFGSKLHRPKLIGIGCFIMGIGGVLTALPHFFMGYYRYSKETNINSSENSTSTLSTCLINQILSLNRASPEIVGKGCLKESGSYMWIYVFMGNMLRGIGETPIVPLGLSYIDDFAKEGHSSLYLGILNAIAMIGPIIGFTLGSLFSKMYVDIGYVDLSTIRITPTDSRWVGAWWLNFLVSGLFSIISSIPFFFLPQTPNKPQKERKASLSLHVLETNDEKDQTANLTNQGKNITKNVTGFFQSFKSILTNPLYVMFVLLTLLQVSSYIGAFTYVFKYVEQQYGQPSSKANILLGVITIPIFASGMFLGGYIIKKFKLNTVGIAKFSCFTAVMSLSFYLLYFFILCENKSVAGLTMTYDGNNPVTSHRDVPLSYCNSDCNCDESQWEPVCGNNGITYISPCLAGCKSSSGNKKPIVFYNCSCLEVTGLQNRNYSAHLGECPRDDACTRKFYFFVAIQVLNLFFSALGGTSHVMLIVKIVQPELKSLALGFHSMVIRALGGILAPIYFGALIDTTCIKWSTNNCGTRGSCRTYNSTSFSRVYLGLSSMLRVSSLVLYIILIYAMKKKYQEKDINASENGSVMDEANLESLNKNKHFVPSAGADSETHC

MATE2K = MATE2K (Homo sapiens, UniProt Q86VL8); assay: Uptake into HEK293 cells expressing MATE2K; details: for Uptake Rate / Fold-Change: 6 μM, HEK293-MATE2K; for Fold-Change: vs HEK293-mock; for Substrate: MATE2K
[1] = Apparent permeability in Caco-2 cells; format: in vitro ADME; details: human; for Papp A→B at 1 h, 4 µM / Papp B→A at 1 h, 4 µM: Caco-2, pH 7.4
Protocol: Caco-2 cells (passage no. 41–42) were grown in tissue culture flasks containing Dulbecco’s Modified Eagle Medium supplemented with 20% FBS, 1% nonessential amino acids, and 1% penicillin–streptomycin. […] The culture medium was replaced every other day. On the day of the experiment, the growth medium was discarded, and the attached cells were washed with prewarmed HBSS (pH 7.4) and preincubated with HBSS for 20 min at 37 °C. […] Aliquots (30 μL) of each sample were vortex-mixed with 90 μL of IS solution for 1 min, and then centrifugation was performed at 13,500 rpm at 4 °C for 5 min. Aliquots (5 μL) of the supernatant were injected into the LC-MS/MS for analysis.

Sequence of MATE2K (Q86VL8 1-566 isoform Q86VL8-3): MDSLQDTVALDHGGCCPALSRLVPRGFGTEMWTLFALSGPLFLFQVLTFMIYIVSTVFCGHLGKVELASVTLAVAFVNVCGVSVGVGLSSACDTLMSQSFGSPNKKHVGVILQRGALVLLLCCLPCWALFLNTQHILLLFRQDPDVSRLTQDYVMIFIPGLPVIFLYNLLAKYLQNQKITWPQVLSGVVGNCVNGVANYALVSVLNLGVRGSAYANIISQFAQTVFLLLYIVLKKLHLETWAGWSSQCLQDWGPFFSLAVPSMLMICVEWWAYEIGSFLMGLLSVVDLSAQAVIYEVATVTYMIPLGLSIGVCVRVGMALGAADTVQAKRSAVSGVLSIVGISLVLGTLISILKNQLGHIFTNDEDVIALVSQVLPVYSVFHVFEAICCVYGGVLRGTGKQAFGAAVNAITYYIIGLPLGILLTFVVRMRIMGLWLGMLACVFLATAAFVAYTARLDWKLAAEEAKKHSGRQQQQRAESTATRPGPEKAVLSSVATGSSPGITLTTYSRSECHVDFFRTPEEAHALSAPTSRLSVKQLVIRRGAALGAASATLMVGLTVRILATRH

SMILES | Uptake Rate (OATP1B3; HEK293-OATP1B3, control) [pmol/min/10^5 Cells] | Uptake Rate (OATP1B3; HEK293-OATP1B3, rifampin 20 μM) [pmol/min/10^5 Cells] | Substrate (OATP1B3) | Uptake Rate (OAT1; HEK293-OAT1, control) [pmol/min/10^5 Cells] | Uptake Rate (OAT1; HEK293-OAT1, probenecid 20 μM) [pmol/min/10^5 Cells] | Substrate (OAT1) | Uptake Rate (OATP1B1; HEK293-OATP1B1, control) [pmol/min/10^5 Cells] | Uptake Rate (OATP1B1; HEK293-OATP1B1, rifampin 20 μM) [pmol/min/10^5 Cells] | Substrate (OATP1B1) | Uptake Rate (MATE2K; cimetidine 100 μM) [pmol/min/10^5 Cells] | Uptake Rate (MATE2K; control) [pmol/min/10^5 Cells] | Substrate (MATE2K) | Papp A→B at 1 h, 4 µM [1] [×10⁻⁶ cm/s] | Papp B→A at 1 h, 4 µM [1] [×10⁻⁶ cm/s] | also measured
Cc1cccc(CO)c1CNc1cc(C(=O)N2CCC2)cn2c(C)c(C)nc12 [M1, azetidin-1-yl(8-((2-(hydroxymethyl)-6-methyl-benzyl)amino)-2,3-dimethylimidazo[1,2-a]pyridin-6-yl)methanone] | 44.54 ± 0.74 | 52.67 ± 2.99 | No | 68.04 ± 2.96 | 61.04 ± 5.29 | No | 52.79 ± 2.39 | 53.60 ± 3.73 | No | 72.81 ± 3.33 | 59.19 ± 3.66 | No | 3.36 ± 0.24 | 20.3 ± 1.51 | Fold-Change (OATP1B3; HEK293-OATP1B3, control): 0.9; Fold-Change (OATP1B3; HEK293-OATP1B3, rifampin 20 μM): 1.0; Fold-Change (OAT1; HEK293-OAT1, control): 1.3; Fold-Change (OAT1; HEK293-OAT1, probenecid 20 μM): 1.2; Fold-Change (OATP1B1; HEK293-OATP1B1, control): 1.0; Fold-Change (OATP1B1; HEK293-OATP1B1, rifampin 20 μM): 1.0; Fold-Change (MATE2K; cimetidine 100 μM): 1.4; Fold-Change (MATE2K; control): 1.1; efflux ratio at 1 h, 4 µM ([1]; pH 7.4, Caco-2, mean Papp,BA / mean Papp,AB, read-out: ER): 6
Cc1cccc(C)c1CNc1cc(C(=O)N2CCC2)cn2c(C)c(C)nc12 [JP-1366, 1-azetidinyl(8-(((2,6-dimethylphenyl)methyl)amino)-2,3-dimethylimidazo(1,2-a)pyridin-6-yl)methanone] | 44.54 ± 0.74 | 52.67 ± 2.99 | No | 68.04 ± 2.96 | 61.04 ± 5.29 | No | 52.79 ± 2.39 | 53.60 ± 3.73 | No | 72.81 ± 3.33 | 59.19 ± 3.66 | No | 23 ± 5.79 | 10.7 ± 1.77 | 

Source: paper PMC11207335, “In Vitro Metabolism and Transport Characteristics of Zastaprazan” (Pharmaceutics, 2024)
